Reference: ChEMBL document CHEMBL3580661, “Structure-Guided Design of Group I Selective p21-Activated Kinase Inhibitors” (J Med Chem, 2015)
≈ marks a conversion by molar mass, not a printed value. One block for each compound: values may come before it.

Key:
[1] = molecular target: T1, Serine/threonine-protein kinase PAK 4 (Homo sapiens, UniProt O96013); assay: Inhibition of human PAK4
[2] = molecular target: T2, Serine/threonine-protein kinase PAK 1 (Homo sapiens, UniProt Q13153); assay: Inhibition of PAK1 (unknown origin)
[3] = Metabolic stability in rat liver S9 fraction assessed as compound remaining at 1 uM measured at 60 mins in presence of NADPH; format: ADME, subcellular; conditions: read-out: Stability
[4] = molecular target: T1, Serine/threonine-protein kinase PAK 4; assay: Inhibition of human recombinant PAK4 kinase domain using coumarin/fluorescein-labeled FRET peptide as substrate assessed as substrate phosphorylation at Ser/Thr19 preincubated for 10 mins followed by ATP addition measured after 60 mins by Z'-LYTE assay
Liver [5] = assay: Metabolic stability in rat liver S9 fraction at 1 uM after 60 mins in absence of NADPH; format: ADME; conditions: s9, 1 h
[6] = Drug metabolism in rat liver S9 fraction assessed as N-acetyltransferase-mediated metabolite formation by measuring parent compound level at 1 uM after 60 mins in presence of acetyl CoA, NADPH; format: ADME, subcellular; conditions: s9, 1 h
[7] = molecular target: T2, Serine/threonine-protein kinase PAK 1; assay: Inhibition of human recombinant PAK1 kinase domain using coumarin/fluorescein-labeled FRET peptide as substrate assessed as substrate phosphorylation at Ser/Thr19 preincubated for 10 mins followed by ATP addition measured after 60 mins by Z'-LYTE assay
Liver [8] = assay: Metabolic stability in rat liver S9 fraction at 1 uM after 60 mins in presence of NADPH; format: ADME, subcellular; conditions: s9, 1 h
Rattus norvegicus = assay: Plasma clearance in rat at 2.5 mg/kg, iv administered as bolus dose; format: ADME, organism-based; conditions: in vivo
Hepatocyte = assay: Drug uptake in mouse hepatocytes; format: ADME, cell-based
[9] = Kinetic solubility of the compound; format: physicochemical; conditions: read-out: Kinetic_solubility
[10] = Apparent permeability across apical to basolateral side in MDCK cells; format: ADME, cell-based, Canis lupus familiaris; conditions: dog
Mus musculus = assay: Plasma clearance in mouse at 2 mg/kg, iv administered as bolus dose; format: ADME, organism-based; conditions: in vivo
[11] = Lipophilicity, log D of the compound; format: physicochemical; conditions: octanol/water
[12] = Apparent permeability across basolateral to apical side in MDCK cells; format: ADME, cell-based, Canis lupus familiaris; conditions: dog
[13] = molecular target: T2, Serine/threonine-protein kinase PAK 1; assay: Inhibition of PAK1 in human EBC1 cells assessed as inhibition of MEK phosphorylation at S298 after 2 hrs by HTRF assay; format: cell-based
[14] = Drug metabolism in rat liver S9 fraction assessed as glucuronide metabolite formation at 1 uM in presence of UDPGA; format: ADME, subcellular; conditions: s9, 1 µM
[15] = Drug metabolism in rat liver S9 fraction assessed as oxidative metabolite formation by measuring parent compound level at 1 uM measured over 60 mins in presence of NADPH; format: ADME, subcellular; conditions: s9, 1 h
[16] = Drug metabolism in rat liver S9 fraction assessed as N-acetyltransferase-mediated metabolite formation by measuring parent compound level at 1 uM after 80 mins in presence of acetyl CoA, NADPH; format: ADME, subcellular; conditions: s9, 80 min
[17] = Plasma clearance in rat at 2 mg/kg, iv administered as bolus dose; format: ADME, organism-based
[18] = Lipophilicity, log D of the compound at pH 7.4; format: physicochemical; conditions: buffer
[19] = Drug metabolism in rat liver S9 fraction assessed as N-acetyltransferase-mediated metabolite formation at 1 uM measured over 60 mins in presence of acetyl CoA, NADPH; format: ADME, subcellular; conditions: s9, 1 h
[20] = Plasma protein binding in rat; format: ADME, cell-free; conditions: read-out: PPB (converted)
[21] = Plasma clearance in rat at 1 mg/kg, iv administered as bolus dose; format: ADME, organism-based
[22] = Oral bioavailability in rat at 5 mg/kg; format: ADME, organism-based; conditions: in vivo
Aurora kinase A = molecular target: T3, Aurora kinase A (Homo sapiens, UniProt O14965); assay: Inhibition of aurora A (unknown origin)
T3 sequence (O14965 whole entry): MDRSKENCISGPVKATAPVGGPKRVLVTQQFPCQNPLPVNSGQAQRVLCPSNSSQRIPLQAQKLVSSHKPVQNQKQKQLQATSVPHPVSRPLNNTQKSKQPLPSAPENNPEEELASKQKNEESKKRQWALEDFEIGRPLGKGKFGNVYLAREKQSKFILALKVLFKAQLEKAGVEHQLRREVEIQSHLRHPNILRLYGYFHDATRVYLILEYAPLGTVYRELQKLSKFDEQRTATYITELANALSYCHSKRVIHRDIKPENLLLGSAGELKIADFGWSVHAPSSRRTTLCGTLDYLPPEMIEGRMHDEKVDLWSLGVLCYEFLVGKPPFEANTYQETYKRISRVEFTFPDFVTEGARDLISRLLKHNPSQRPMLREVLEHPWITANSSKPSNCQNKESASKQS

T1 sequence (O96013 whole entry): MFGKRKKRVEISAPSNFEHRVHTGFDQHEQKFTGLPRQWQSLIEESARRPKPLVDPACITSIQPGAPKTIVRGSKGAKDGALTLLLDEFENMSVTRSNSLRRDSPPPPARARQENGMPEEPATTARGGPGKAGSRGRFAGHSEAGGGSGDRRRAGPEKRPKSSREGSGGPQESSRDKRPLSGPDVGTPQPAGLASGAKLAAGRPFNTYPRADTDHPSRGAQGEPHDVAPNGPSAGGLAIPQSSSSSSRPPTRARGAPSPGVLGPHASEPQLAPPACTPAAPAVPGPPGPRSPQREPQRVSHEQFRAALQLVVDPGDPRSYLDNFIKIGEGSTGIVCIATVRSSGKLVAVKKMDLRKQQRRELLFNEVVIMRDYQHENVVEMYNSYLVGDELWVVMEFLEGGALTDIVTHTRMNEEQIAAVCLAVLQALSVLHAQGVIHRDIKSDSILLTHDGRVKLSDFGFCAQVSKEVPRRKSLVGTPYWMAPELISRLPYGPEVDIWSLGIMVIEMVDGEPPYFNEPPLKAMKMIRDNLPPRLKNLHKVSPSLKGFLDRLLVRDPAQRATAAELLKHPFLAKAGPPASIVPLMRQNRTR
T2 sequence (Q13153 whole entry): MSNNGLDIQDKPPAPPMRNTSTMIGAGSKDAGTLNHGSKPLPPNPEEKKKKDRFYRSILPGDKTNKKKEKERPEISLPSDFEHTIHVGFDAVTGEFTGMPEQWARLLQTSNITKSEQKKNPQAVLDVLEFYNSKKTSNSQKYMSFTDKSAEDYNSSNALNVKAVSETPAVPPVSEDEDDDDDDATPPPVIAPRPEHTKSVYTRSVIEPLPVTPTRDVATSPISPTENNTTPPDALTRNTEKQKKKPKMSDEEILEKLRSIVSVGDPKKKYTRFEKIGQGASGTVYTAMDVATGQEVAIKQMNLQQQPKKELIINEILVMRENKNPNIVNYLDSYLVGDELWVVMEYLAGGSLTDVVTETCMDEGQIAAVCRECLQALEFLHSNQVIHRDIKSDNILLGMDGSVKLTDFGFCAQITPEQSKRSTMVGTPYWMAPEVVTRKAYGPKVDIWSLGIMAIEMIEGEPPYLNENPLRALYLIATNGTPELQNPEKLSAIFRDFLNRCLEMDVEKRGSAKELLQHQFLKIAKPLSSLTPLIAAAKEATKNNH

SMILES: CC1CCN(c2nc(Nc3cc(C4CC4)n[nH]3)c3ccccc3n2)CC1
Ki [1]: 49 nM
Ki [2]: 100 nM

SMILES: NC1CCN(c2nc(Nc3cc(C4CC4)[nH]n3)c3sccc3n2)CC1
remaining at 1 h, 1 µM [3]: 51%
Ki [4]: 12 nM
Stability (Liver [5]): Stable
Stability [6]: < 1%
Ki [7]: 22 nM

SMILES: Cc1cc(Nc2nc(N3CCC(N)CC3)nc3ccsc23)n[nH]1
Ki [7]: 179 nM

SMILES: CCc1cc(Nc2nc(N3CCC(N)CC3)nc3ccsc23)n[nH]1
Ki [7]: 33 nM

SMILES: CCCc1cc(Nc2nc(N3CCC(N)CC3)nc3ccsc23)n[nH]1
Ki [7]: 48 nM

SMILES: NC1CCN(c2nc(Nc3cc(C4CCC4)[nH]n3)c3sccc3n2)CC1
Ki [7]: 18 nM

SMILES: NC1CCN(c2nc(Nc3cc(-c4ccccc4)[nH]n3)c3sccc3n2)CC1
Ki [7]: 660 nM

SMILES: NC1CCN(c2nc(Nc3cc(C4CC4)[nH]n3)c3occc3n2)CC1
Ki [4]: 45 nM
Ki [7]: 119 nM

SMILES: NC1CCN(c2nccc(Nc3cc(C4CC4)[nH]n3)n2)CC1
Ki [4]: 283 nM
Ki [7]: 454 nM

SMILES: NC1CCN(c2cccc(Nc3cc(C4CC4)[nH]n3)n2)CC1
Ki [4]: 612 nM
Ki [7]: 561 nM

SMILES: c1cc(Nc2cc(C3CC3)[nH]n2)nc(NCC2CCNCC2)n1
Ki [4]: 80 nM
Ki [7]: 245 nM

SMILES: N[C@H]1CC[C@H](CNc2nccc(Nc3cc(C4CC4)[nH]n3)n2)CC1
Stability (Liver [8]): Stable
Ki [4]: 38 nM
clearance (Rattus norvegicus): 158 mL/min/kg
Drug uptake (Hepatocyte): Active
solubility kinetic [9]: 149 µM (≈ 48.9 µg/mL)
Papp A→B [10]: 0.5 ×10⁻⁶ cm/s
clearance (Mus musculus): 83 mL/min/kg
logD [11]: -0.2
Stability (Liver [5]): Stable
Stability [6]: 69.3%
Ki [7]: 26 nM
Papp B→A [12]: 2 ×10⁻⁶ cm/s
IC50 [13]: 2200 nM

SMILES: N[C@H]1CC[C@@H](CNc2nccc(Nc3cc(C4CC4)[nH]n3)n2)CC1
Ki [4]: 4 nM
Ki [7]: 21 nM

SMILES: CNc1ccc(CNc2nccc(Nc3cc(C4CC4)[nH]n3)n2)cn1
Ki [4]: 610 nM
Ki [7]: 346 nM

SMILES: CN(C)c1ccc(CNc2nccc(Nc3cc(C4CC4)[nH]n3)n2)cn1
Ki [4]: 907 nM
Ki [7]: 1470 nM

SMILES: c1cc(Nc2cc(C3CC3)[nH]n2)nc(NCc2ccc3[nH]ccc3c2)n1
Ki [4]: 144 nM
Ki [7]: 27 nM
logD [18]: 3
clearance [17]: 30.1 mL/min/kg

SMILES: C[C@H](Nc1nccc(Nc2cc(C3CC3)[nH]n2)n1)c1ccc2[nH]ccc2c1
Ki [4]: 42 nM
Ki [7]: 31 nM
clearance [17]: 30 mL/min/kg
IC50 [13]: 120 nM

SMILES: Cn1cnc2cc(CNc3nccc(Nc4cc(C5CC5)[nH]n4)n3)ccc21
Ki [4]: 1660 nM
Ki [7]: 607 nM

SMILES: C[C@H](Nc1nccc(Nc2cc(C3CC3)[nH]n2)n1)c1ccc2[nH]cnc2c1
fraction unbound [20]: 0.011
Ki [4]: 106 nM
Papp A→B [10]: 0.9 ×10⁻⁶ cm/s
Ki [7]: 12 nM
Papp B→A [12]: 6.8 ×10⁻⁶ cm/s
clearance [17]: 20.3 mL/min/kg
IC50 [13]: 281 nM

SMILES: Fc1c(CNc2nccc(Nc3cc(C4CC4)[nH]n3)n2)ccc2[nH]cnc12
Ki [4]: 1110 nM
Ki [7]: 179 nM

SMILES: Clc1c(CNc2nccc(Nc3cc(C4CC4)[nH]n3)n2)ccc2[nH]cnc12
fraction unbound [20]: 0.002
Ki [4]: 455 nM
Papp A→B [10]: 2.8 ×10⁻⁶ cm/s
Ki [7]: 5 nM
Papp B→A [12]: 6.3 ×10⁻⁶ cm/s
clearance [21]: 6.4 mL/min/kg
IC50 [13]: 362 nM

SMILES: C[C@@H](Nc1nccc(Nc2cc(C3CC3)[nH]n2)n1)c1ccc2[nH]ccc2c1
Ki [7]: 1900 nM

Second part, the compound after the results:

Ki [1]: 2 nM
Ki [2]: 50 nM
SMILES: N[C@@H]1[C@H]2CN(c3nc(Nc4cc(C5CC5)[nH]n4)c4sccc4n3)C[C@@H]12

Ki [7]: 33 nM
SMILES: CC(C)c1cc(Nc2nc(N3CCC(N)CC3)nc3ccsc23)n[nH]1

Ki [4]: 1820 nM
Ki [7]: 4390 nM
SMILES: NC1CCN(c2cc(Nc3cc(C4CC4)[nH]n3)ccn2)CC1

Ki [4]: 100 nM
Ki [7]: 157 nM
SMILES: N[C@H]1CC[C@H](Nc2nccc(Nc3cc(C4CC4)[nH]n3)n2)CC1

Drug metabolism [14]: metabolite_notdetected
Stability [15]: 60%
Ki [4]: 563 nM
Stability [16]: 50%
Ki [7]: 138 nM
clearance [17]: 122 mL/min/kg
SMILES: Nc1ccc(CNc2nccc(Nc3cc(C4CC4)[nH]n3)n2)cn1

Ki [4]: 961 nM
Drug metabolism [19]: metabolite_notdetected
Ki [7]: 117 nM
logD [18]: 2.5
clearance [17]: 24.1 mL/min/kg
SMILES: c1cc(Nc2cc(C3CC3)[nH]n2)nc(NCc2ccc3[nH]cnc3c2)n1

Ki [4]: 1900 nM
Ki [7]: 584 nM
SMILES: Cn1cnc2ccc(CNc3nccc(Nc4cc(C5CC5)[nH]n4)n3)cc21

bioavailability [22]: 12%
fraction unbound [20]: 0.011
Papp A→B [10]: 1.9 ×10⁻⁶ cm/s
Ki [7]: 4 nM
Papp B→A [12]: 18 ×10⁻⁶ cm/s
clearance [21]: 67 mL/min/kg
IC50 [13]: 110 nM
SMILES: CN(Cc1ccc2[nH]cnc2c1Cl)c1nccc(Nc2cc(C3CC3)[nH]n2)n1

fraction unbound [20]: 0.007
Ki [4]: 547 nM
Papp A→B [10]: 7.4 ×10⁻⁶ cm/s
Ki (Aurora kinase A): 5.3 nM
Ki [7]: 5 nM
Papp B→A [12]: 11.1 ×10⁻⁶ cm/s
clearance [21]: 61 mL/min/kg
IC50 [13]: 85 nM
SMILES: CCN(Cc1ccc2[nH]cnc2c1Cl)c1nccc(Nc2cc(C3CC3)[nH]n2)n1
